{
  "source": "patent US20050244462A1",
  "about": "“Devices and methods for treating a mammalian eye” (Allergan, Inc., priority 2004, published 2005)",
  "origin": "cited, not measured here",
  "conditions": "steroidal anti-inflammatory efficacy in vivo; 25 mg hydrocortisone equivalent to 1 mg dexamethasone; Goodman and Gilman 8th ed. p. 1447",
  "data": [
    {"smiles": "C[C@]12CCC(=O)C=C1CC[C@@H]1[C@@H]2[C@@H](O)C[C@@]2(C)[C@H]1CC[C@]2(O)C(=O)CO", "note": "[hydrocortisone]", "values": [
      {"measurement": "potency relative to dexamethasone", "value": "approximately twentyfivefold less potent than dexamethasone"}
    ]}
  ]
}
